Entries after “also recorded” stand apart in the source; their conditions may differ. Blank lines part the entries; values can stand above or below the molecule they belong to.
Tests used:
[1] = time to achieve matrix cross-linking of cord blood plasma; type: physicochemical, human
Procedure: (§1) FIG. 2(a-b). Chemical characterization of cord blood plasma 3D culture model referred as InvitroWOMB (iWOMB).
(§2) Referring to FIG. 2, cross-linking time was assessed by measuring the time necessary to achieve matrix cross-linking using three relevant cross-linkers of the blood coagulation process including thrombin (0-5 mg/ml) and CaCl2 (0-10 mg/ml). The stabilization effects of preventing fibrin degradation and stability improvement in the scaffold was assessed by surveying an antifibrinolytic agent such as tranexamic acid (0-5 mg/ml). The stability of the scaffold was studied by measuring each scaffold weight at day 0 and again measuring scaffold weight at the conclusion of a 3 week time period.

[2] = scaffold stability: scaffold weight at day 0 and after 3 weeks; type: physicochemical, human; conditions: tranexamic acid in the range of 5 mg/ml (tested 0-5 mg/ml); 3 week period
Procedure: as §1, §2

[3] = tested on: GDM-exposed hu-MSC; assay: hu-MSC growth assay with metformin, live cells counted by Trypan blue; type: cell-based, human; conditions: 25 μM metformin; 20K cells/well; 72 hour cell counts
From the text: (§3) FIG. 9(a-d). Precision capabilities. (a) Using a custom human antibody array we measured relative expression of cytokines and growth factors in cord plasma for scaffolds from subjects with Type 1 (T1D), Type 2 (T2D) and gestational diabetes (GDM). Bar graphs represent relative expression by densitometry compared to negative control (membrane background). (b) Hu-MSC from control, T1D, T2D and GDM donors (n=2-3/group) were uniformly plated (50K live cells/well) in stem cell media to collagen-coated, 24-well plates. Trypan blue was used to count live cells every 24 hours and growth was measured and compared. Bar graphs represent fold change from baseline to 72 hours; *p<0.05 by one-way ANOVA with Dunnett post-test, (c) Control hu-MSCs were treated with metformin at increasing doses (0, 25, 50 and 100 μM) and growth was followed as previously described. […] Bar graphs represent the number of cells/well remaining at 72 hours after initial plating of 20K cells/well.
(§4) To determine whether iWOMB is a useful tool for precision-based assays, we used umbilical cord plasma and hu-MSC from control and diabetic pregnancy to identify diabetes-related differences in proteins in the DME and/or programmed cell fate. […] Using our customized antibody array as detailed above (FIG. 8), we compared relative expression of cytokines and growth factors in cord plasma protein. Just as fibrinogen levels are higher in cord plasma from diabetic pregnancies, so are other factors. Specifically, umbilical cord plasma cytokines (IL-6, IL-10), insulin like growth factor −1 (IGF-1) and hepatocyte growth factor (HGF) from Type 1 diabetic pregnancy (TID) are higher than in plasma from Type 2 (T2D) and gestational diabetes (GDM) (FIG. 9a). […] Every 24 hours cells were detached using 0.25% trypsin/EDTA and live cells were counted using Trypan blue staining and a hemocytometer. Live cells were recorded at each time point for […]. […] Every 24 hours cells were detached using 0.25% trypsin/EDTA and live cells were counted using Trypan blue and a hemocytometer. Live cells were recorded at each time point for 72 hours. […]

[4] = tested on: control hu-MSC; assay: as above; type: cell-based, human
From the text: as §3, §4

Molecule: [Ca+2].[Cl-].[Cl-] [CaCl2, calcium chloride]
cross-linking time ([1]; CaCl2 1.25 to 5 mg/ml (tested 0-10 mg/ml)): fastest crosslinking

Molecule: thrombin
cross-linking time ([1]; thrombin 0.5 to 5 mg/ml (tested 0-5 mg/ml)): fastest crosslinking

scaffold stability (prevention of fibrin degradation) [2]: best improvement in scaffold stability
Molecule: NC[C@H]1CC[C@H](C(=O)O)CC1 [Tranexamic acid, tranexamic acid]

Molecule: CN(C)C(=N)N=C(N)N [metformin]
growth of GDM exposed hu-MSC [3]: increased growth; also recorded: improves | growth of control hu-MSC ([4]; 25 μM metformin (level reported in umbilical cord blood), 20K cells/well, 72 hours): does not impair growth | hu-MSC cell growth (number of live cells over time) ([4]; normal/control hu-MSC, metformin 0, 25, 50, 100 uM, live cells counted every 24 h for 72 hours): impairs hu-MSC growth in a dose dependent manner; also recorded: dose-dependent decline in cell growth

Reference: patent US20220213433A1, “Three-Dimensional Cross-Linked Scaffolds of Cord Blood Plasma and Their Use” (SANFORD HEALTH, priority 2019, published 2022)
